In PubChem BioAssay (NCI):
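1) Cells in 96-well plates. 2) Compound, 48 h, 5 concentrations. 3) Linear interpolation between surrounding doses. 4) Unreached endpoint = highest concentration. TGI: total growth inhibition.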

Key:
Assay in all cases: inhibition of tumour cell growth, NCI panel, 48 h
786-0 renal = test system: 786-0 renal
A498 renal = test system: A498 renal
A549 NSCLC = test system: A549 NSCLC
ACHN renal = test system: ACHN renal
CAKI-1 renal = test system: CAKI-1 renal
CCRF-CEM leukemia = test system: CCRF-CEM leukemia
COLO 205 colon = test system: COLO 205 colon
DU-145 prostate = test system: DU-145 prostate
EKVX NSCLC = test system: EKVX NSCLC
HCC-2998 colon = test system: HCC-2998 colon
HCT-116 colon = test system: HCT-116 colon
HCT-15 colon = test system: HCT-15 colon
HL-60(TB) leukemia = test system: HL-60(TB) leukemia
HOP-62 NSCLC = test system: HOP-62 NSCLC
HT29 colon = test system: HT29 colon
IGROV1 ovarian = test system: IGROV1 ovarian
K-562 leukemia = test system: K-562 leukemia
KM12 colon = test system: KM12 colon
LOX IMVI melanoma = test system: LOX IMVI melanoma
M14 melanoma = test system: M14 melanoma
MALME-3M melanoma = test system: MALME-3M melanoma
MCF7 breast = test system: MCF7 breast
MDA-MB-231 breast = test system: MDA-MB-231 breast
MDA-MB-435 = test system: MDA-MB-435
MDA-N = test system: MDA-N
MOLT-4 leukemia = test system: MOLT-4 leukemia
NCI-H226 lung = test system: NCI-H226 lung
NCI-H23 lung = test system: NCI-H23 lung
NCI-H460 lung = test system: NCI-H460 lung
NCI-H522 lung = test system: NCI-H522 lung
NCI/ADR-RES ovarian = test system: NCI/ADR-RES ovarian
OVCAR-3 ovarian = test system: OVCAR-3 ovarian
OVCAR-4 ovarian = test system: OVCAR-4 ovarian
OVCAR-5 ovarian = test system: OVCAR-5 ovarian
OVCAR-8 ovarian = test system: OVCAR-8 ovarian
PC-3 prostate = test system: PC-3 prostate
RXF 393 renal = test system: RXF 393 renal
SF-268 CNS = test system: SF-268 CNS
SF-295 CNS = test system: SF-295 CNS
SF-539 CNS = test system: SF-539 CNS
SK-MEL-2 melanoma = test system: SK-MEL-2 melanoma
SK-MEL-28 melanoma = test system: SK-MEL-28 melanoma
SK-MEL-5 melanoma = test system: SK-MEL-5 melanoma
SK-OV-3 ovarian = test system: SK-OV-3 ovarian
SN12C renal = test system: SN12C renal
SNB-19 CNS = test system: SNB-19 CNS
SNB-75 CNS = test system: SNB-75 CNS
SR leukemia = test system: SR leukemia
SW-620 colon = test system: SW-620 colon
T-47D breast = test system: T-47D breast
TK-10 renal = test system: TK-10 renal
U251 CNS = test system: U251 CNS
UACC-257 melanoma = test system: UACC-257 melanoma
UACC-62 melanoma = test system: UACC-62 melanoma
UO-31 renal = test system: UO-31 renal

Measured: TGI

O=c1c2ccccc2n2c(=S)[nH]nc2n1-c1ccccc1
84 µM: SNB-75 CNS
> 100 µM: all other assays above
